# Results reported in patent US7332501B2, “Indol-3-yl-carbonyl-spiro-piperidine derivatives as V1a receptor antagonists” (Hoffmann-La Roche Inc., priority 2005, dated 2008).
# Biological target: T1, human V1a receptor (Homo sapiens, UniProt P37288)
# T1 construct: expressed in transfected cells; host or cells: HEK293 cells, transiently transfected; cell membranes
# Test: human V1a receptor binding (3H-Vasopressin SPA, HEK293 membranes)
# Conditions: displacement of 4 nM 3H-Vasopressin, membranes of HEK293 cells transiently transfected with human V1a receptor; Ki from IC50 by Cheng-Prussoff
# Method in brief: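 Ki derived by Cheng-Prusoff from IC50 curves normalised to specific binding. Serially diluted compounds (in 2% DMSO) competed with 3H-vasopressin (4 nM working solution) for 1 h at room temperature on SPA beads bearing membranes of transiently transfected HEK293 cells; unlabelled vasopressin defined non-specific counts.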
# T1 sequence (P37288 whole entry): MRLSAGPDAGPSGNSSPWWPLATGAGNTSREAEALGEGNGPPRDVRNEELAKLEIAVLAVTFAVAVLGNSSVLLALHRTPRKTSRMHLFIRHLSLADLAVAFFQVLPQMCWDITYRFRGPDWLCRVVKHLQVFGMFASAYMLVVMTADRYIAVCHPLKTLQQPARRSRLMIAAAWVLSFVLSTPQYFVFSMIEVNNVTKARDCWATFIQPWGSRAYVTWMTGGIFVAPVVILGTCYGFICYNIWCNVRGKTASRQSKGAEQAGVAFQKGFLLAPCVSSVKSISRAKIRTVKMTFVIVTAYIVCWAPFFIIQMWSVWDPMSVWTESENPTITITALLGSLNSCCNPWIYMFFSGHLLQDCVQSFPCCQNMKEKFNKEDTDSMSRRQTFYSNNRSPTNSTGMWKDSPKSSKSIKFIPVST
row,Compound,Ki
1,"CN(C)CCNC(=O)Cn1cc(C(=O)N2CCC3(CC2)OC(=O)c2ccccc23)c2ccc(Cl)cc21 [Example 119, 2-{6-Chloro-3-[(3-oxo-1′H,3H-spiro[2-benzofuran-1,4′-piperidin]-1′-yl)carbonyl]-1H-indol-1-yl}-N-[2-(dimethylamino)ethyl]acetamide]",24 nM
2,"Cc1c(C(=O)N2CCC3(CC2)OC(=O)c2ccc(OCCO)cc23)c2ccccc2n1Cc1ccccc1 [Example 122, 1′-[(1-benzyl-2-methyl-1H-indol-3-yl)carbonyl]-6-(2-hydroxyethoxy)-3H-spiro[2-benzofuran-1,4′-piperidin]-3-one]",5.2 nM
3,"Cc1c(C(=O)N2CCC3(CC2)OC(=O)c2ccccc23)c2ccccc2n1Cc1ccccc1 [Example 126, 1′-[(1-Benzyl-2-methyl-1H-indol-3-yl)carbonyl]-3H-spiro[2-benzofuran-1,4′-piperidin]-3-one]",3 nM
4,"O=C1OC2(CCN(C(=O)c3cn(C(=O)c4cc(F)cc(F)c4)c4cc(Cl)ccc34)CC2)c2ccccc21 [Example 130, 1′-{[6-Chloro-1-(3,5-difluorobenzoyl)-1H-indol-3-yl]carbonyl}-3H-spiro[2-benzofuran-1,4′-piperidin]-3-one]",11.1 nM
5,"O=C1OC2(CCN(C(=O)c3cn(Cc4cc(F)cc(F)c4)c4cc(Cl)ccc34)CC2)c2ccccc21 [Example 133, 1′-{[6-Chloro-1-(3,5-difluorobenzyl)-1H-indol-3-yl]carbonyl}-3H-spiro[2-benzofuran-1,4′-piperidin]-3-one]",0.9 nM
6,"O=C1OC2(CCN(C(=O)c3cn(Cc4cccc(F)c4)c4cc(Cl)ccc34)CC2)c2ccccc21 [Example 134, 1′-{[6-Chloro-1-(3-fluorobenzyl)-1H-indol-3-yl]carbonyl}-3H-spiro[2-benzofuran-1,4′-piperidin]-3-one]",1 nM
7,"O=C1OC2(CCN(C(=O)c3cn(Cc4cc(F)cc(F)c4)c4cc(Cl)ccc34)CC2)c2ccc(F)cc21 [Example 142, 1′-{[6-Chloro-1-(3,5-difluorobenzyl)-1H-indol-3-yl]carbonyl}-5-fluoro-3H-spiro[2-benzofuran-1,4′-piperidin]-3-one]",0.6 nM
8,"O=C1OC2(CCN(C(=O)c3cn(Cc4cccc(F)c4)c4cc(Cl)ccc34)CC2)c2ccc(F)cc21 [Example 143, 1′-{[6-Chloro-1-(3-fluorobenzyl)-1H-indol-3-yl]carbonyl}-5-fluoro-3H-spiro[2-benzofuran-1,4′-piperidin]-3-one]",1 nM
9,"O=C1OC2(CCN(C(=O)c3cn(-c4ccccc4-c4ccccc4)c4cc(Cl)ccc34)CC2)c2ccccc21 [Example 157, 1′-[(1-Biphenyl-2-yl-6-chloro-1H-indol-3-yl)carbonyl]-3H-spiro[2-benzofuran-1,4′-piperidin]-3-one]",39.8 nM
10,"O=C1OC2(CCN(C(=O)c3cn(C(=O)c4cccc(-c5ccccc5)c4)c4cc(Cl)ccc34)CC2)c2ccccc21 [Example 158, 1′-{[1-(Biphenyl-3-ylcarbonyl)-6-chloro-1H-indol-3-yl]carbonyl}-3H-spiro[2-benzofuran-1,4′-piperidin]-3-one]",38.7 nM
11,"O=C1OC2(CCN(C(=O)c3cn(-c4ccccn4)c4cc(Cl)ccc34)CC2)c2ccccc21 [Example 159, 1-[(6-Chloro-1-pyridin-2-yl-1H-indol-3-yl)carbonyl]-3H-spiro[2-benzofuran-1,4′-piperidin]-3-one]",7.6 nM
12,"O=C1OC2(CCN(C(=O)c3cn(-c4ccccn4)c4cc(Cl)ccc34)CC2)c2ccc(F)cc21 [Example 160, 1-[(6-Chloro-1-pyridin-2-yl-1H-indol-3-yl)carbonyl]-5-fluoro-3H-spiro[2-benzofuran-1,4′-piperidin]-3-one]",5 nM
13,"COCc1ncc(Cn2cc(C(=O)N3CCC4(CC3)OC(=O)c3cc(F)ccc34)c3ccc(Cl)cc32)c(N)n1 [Example 162, 1′-[(1-{[4-Amino-2-(methoxymethyl)pyrimidin-5-yl]methyl}-6-chloro-1H-indol-3-yl)carbonyl]-5-fluoro-3H-spiro[2-benzofuran-1,4′-piperidin]-3-one]",65.3 nM
14,"Cc1ncc(Cn2cc(C(=O)N3CCC4(CC3)OC(=O)c3cc(F)ccc34)c3ccc(Cl)cc32)c(N)n1 [Example 163, 1′-({1-[(4-Amino-2-methylpyrimidin-5-yl)methyl]-6-chloro-1H-indol-3-yl}carbonyl)-5-fluoro-3H-spiro[2-benzofuran-1,4′-piperidin]-3-one]",15.3 nM

# More lines, now with the values ahead:
row,Ki,Compound
1,1.7 nM,"CNC(=O)Cn1cc(C(=O)N2CCC3(CC2)OC(=O)c2cc(F)ccc23)c2ccc(Cl)cc21 [Example 116, 2-{6-Chloro-3-[(5-fluoro-3-oxo-1′H,3H-spiro[2-benzofuran-1,4′-piperidin]-1′-yl)carbonyl]-1H-indol-1-yl}-N-methylacetamide]"
2,1.2 nM,"O=C1OC2(CCN(C(=O)c3cn(CC(=O)N4CCNCC4)c4cc(Cl)ccc34)CC2)c2ccc(F)cc21 [Example 117, 1′-{[6-Chloro-1-(2-oxo-2-piperazin-1-ylethyl)-1H-indol-3-yl]carbonyl}-5-fluoro-3H-spiro[2-benzofuran-1,4′-piperidin]-3-one]"
3,2.7 nM,"Cc1cc2c(C(=O)N3CCC4(CC3)OC(=O)c3ccccc34)cn(CC(=O)N(C)C)c2cc1Cl [Example 120, 2-{6-Chloro-5-methyl-3-[(3-oxo-1′H,3H-spiro[2-benzofuran-1,4′-piperidin]-1′-yl)carbonyl]-1H-indol-1-yl}-N,N-dimethylacetamide]"
4,3 nM,"O=C1OC2(CCN(C(=O)c3cn(-c4cc(F)cc(F)c4)c4cc(Cl)ccc34)CC2)c2ccccc21 [Example 127, 1′-{[6-Chloro-1-(3,5-difluorophenyl)-1H-indol-3-yl]carbonyl}-3H-spiro[2-benzofuran-1,4′-piperidin]-3-one]"
5,1.8 nM,"O=C(Cn1cc(C(=O)N2CCC3(CC2)OC(=O)c2ccccc23)c2ccc(Cl)cc21)c1cccc(F)c1 [Example 135, 1′-({6-Chloro-1-[2-(3-fluorophenyl)-2-oxoethyl]-1H-indol-3-yl}carbonyl)-3H-spiro[2-benzofuran-1,4′-piperidin]-3-one]"
6,3 nM,"O=C(Cn1cc(C(=O)N2CCC3(CC2)OC(=O)c2ccccc23)c2ccc(Cl)cc21)c1cc(F)ccc1F [Example 136, 1′-({6-Chloro-1-[2-(2,5-difluorophenyl)-2-oxoethyl]-1H-indol-3-yl]carbonyl)-3H-spiro[2-benzofuran-1,4′-piperidin]-3-one]"
7,2 nM,"O=C(Cn1cc(C(=O)N2CCC3(CC2)OC(=O)c2cc(F)ccc23)c2ccc(Cl)cc21)c1cccc(F)c1 [Example 144, 1′-({6-Chloro-1-[2-(3-fluorophenyl)-2-oxoethyl]-1H-indol-3-yl}carbonyl)-5-fluoro-3H-spiro[2-benzofuran-1,4′-piperidin]-3-one]"
8,3.8 nM,"O=C1OC2(CCN(C(=O)c3cn(Cc4cc(F)cc(F)c4)c4cc(Cl)ccc34)CC2)c2ccc(Br)cc21 [Example 150, 5-Bromo-1′-{[6-chloro-1-(3,5-difluorobenzyl)-1H-indol-3-yl]carbonyl}-3H-spiro[2-benzofuran-1,4′-piperidin]-3-one]"
9,4.8 nM,"O=C1OC2(CCN(C(=O)c3cn(Cc4cccc(F)c4)c4cc(Cl)ccc34)CC2)c2ccc(Br)cc21 [Example 151, 5-Bromo-1′-{[6-chloro-1-(3-fluorobenzyl)-1H-indol-3-yl]carbonyl}-3H-spiro[2-benzofuran-1,4′-piperidin]-3-one]"
10,4.4 nM,"O=C(Cn1cc(C(=O)N2CCC3(CC2)OC(=O)c2cc(Br)ccc23)c2ccc(Cl)cc21)c1cccc(F)c1 [Example 152, 5-Bromo-1′-({6-chloro-1-[2-(3-fluorophenyl)-2-oxoethyl]-1H-indol-3-yl}carbonyl)-3H-spiro[2-benzofuran-1,4′-piperidin]-3-one]"
11,1 nM,"O=C(Cn1cc(C(=O)N2CCC3(CC2)OC(=O)c2ccccc23)c2ccc(Cl)cc21)c1ccccc1F [Example 153, 1′-({6-Chloro-1-[2-(2-fluorophenyl)-2-oxoethyl]-1H-indol-3-yl}carbonyl)-3H-spiro[2-benzofuran-1,4′-piperidin]-3-one]"
12,1.3 nM,"O=C(Cn1cc(C(=O)N2CCC3(CC2)OC(=O)c2ccccc23)c2ccc(Cl)cc21)c1ccc(F)c(F)c1 [Example 154, 1′-({6-Chloro-1-[2-(3,4-difluorophenyl)-2-oxoethyl]-1H-indol-3-yl}carbonyl)-3H-spiro[2-benzofuran-1,4′-piperidin]-3-one]"
13,5 nM,"O=C1OC2(CCN(C(=O)c3cn(-c4cccc(F)c4)c4cc(Cl)ccc34)CC2)c2ccccc21 [Example 155, 1′-{[6-Chloro-1-(3-fluorophenyl)-1H-indol-3-yl]carbonyl}-3H-spiro[2-benzofuran-1,4′-piperidin]-3-one]"
14,2.2 nM,"Cc1cc(Cn2cc(C(=O)N3CCC4(CC3)OC(=O)c3cc(F)ccc34)c3ccc(Cl)cc32)ccn1 [Example 161, 1′-({6-Chloro-1-[(2-methylpyridin-4-yl)methyl]-1H-indol-3-yl}carbonyl)-5-fluoro-3H-spiro[2-benzofuran-1,4′-piperidin]-3-one]"
15,2.9 nM,"O=C1OC2(CCN(C(=O)c3cn(Cc4ccc(Cl)nc4)c4cc(Cl)ccc34)CC2)c2ccc(F)cc21 [Example 164, 1′-({6-Chloro-1-[(6-chloropyridin-3-yl)methyl]-1H-indol-3-yl}carbonyl)-5-fluoro-3H-spiro[2-benzofuran-1,4′-piperidin]-3-one]"
16,4.3 nM,"Cc1cc(Cn2cc(C(=O)N3CCC4(CC3)OC(=O)c3cc(F)ccc34)c3ccc(Cl)cc32)c(Cl)nn1 [Example 165, 1′-({6-Chloro-1-[(3-chloro-6-methylpyridazin-4-yl)methyl]-1H-indol-3-yl}carbonyl)-5-fluoro-3H-spiro[2-benzofuran-1,4′-piperidin]-3-one]"
17,2.4 nM,"O=C1OC2(CCN(C(=O)c3cn(Cc4ccncc4)c4cc(Cl)ccc34)CC2)c2ccc(F)cc21 [Example 166, 1′-{[6-Chloro-1-(pyridin-4-ylmethyl)-1H-indol-3-yl]carbonyl}-5-fluoro-3H-spiro[2-benzofuran-1,4′-piperidin]-3-one]"
